Test results taken from patent publication US6569894B1, “Arylalkylbenzofuran derivatives as melatonergic agents” (Bristol-Myers Squibb Company, priority 2001, dated 2003).

Columns and labels:
[1] = molecular target: T1, ML1b receptor (Homo sapiens, UniProt P49286); experiment: Melatonergic receptor binding activity, 2-[125I]-iodomelatonin, ML1b; conditions: 37° C. for 1 hour
T1 construct: expressed in transfected cells
T1 sequence (P49286 1-362): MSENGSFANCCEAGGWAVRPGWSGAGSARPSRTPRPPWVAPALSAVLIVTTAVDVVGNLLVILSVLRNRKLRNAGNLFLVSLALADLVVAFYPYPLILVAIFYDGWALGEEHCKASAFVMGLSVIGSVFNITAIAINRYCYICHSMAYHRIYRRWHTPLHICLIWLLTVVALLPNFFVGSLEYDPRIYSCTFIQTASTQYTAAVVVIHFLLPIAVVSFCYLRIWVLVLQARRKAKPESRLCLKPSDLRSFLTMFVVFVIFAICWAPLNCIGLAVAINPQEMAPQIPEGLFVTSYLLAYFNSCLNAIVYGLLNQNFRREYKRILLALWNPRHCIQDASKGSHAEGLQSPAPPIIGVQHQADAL
Description: (§1) Melatonergic Receptor Binding Activity
(§2) (a) TME=50 mM Tris buffer containing 12.5 mM MgCl2, and 2 mM EDTA, pH 7.4 at 37° C., with concentrated HCl.
(§3) (b) Wash buffer: 20 mM Tris base containing 2 mM MgCl2, pH 7.4 at room temperature.
(§4) (c) 10^−4 M melatonin (10^−5 M final concentration).
(§5) (d) 2-[^125I]-iodomelatonin, […] final concentration.
(§6) 3. Incubation: 37° C. for 1 hour. Reaction is terminated by filtration. Filters were washed 3 times.
(§7) The compounds of the present invention have affinity for receptors of the endogenous pineal hormone, melatonin, as determined in a receptor binding assays described above in Tables I to V for the ML1a and ML1b (human) receptors. Melatonin is involved in the regulation of a variety of biological rhythms and exerts its biological effects via interaction with specific receptors. There is evidence that administration of melatonin agonists are of clinical utility in the treatment of various conditions regulated by melatonin activity. Such conditions include depression, jet-lag, work-shift syndrome, sleep disorders, glaucoma, some disorders associated with reproduction, cancer benign prostatic hyperplasia, immune disorders and neuroendocrine disorders.

[2] = molecular target: T2, ML1a receptor (Homo sapiens, UniProt P48039); experiment: Melatonergic receptor binding activity, 2-[125I]-iodomelatonin, ML1a; conditions: membrane homogenates of NIH-3T3 cells, 37° C. for 1 hour
T2 construct: expressed in transfected cells; pcDNA3)
T2 sequence (P48039 whole entry): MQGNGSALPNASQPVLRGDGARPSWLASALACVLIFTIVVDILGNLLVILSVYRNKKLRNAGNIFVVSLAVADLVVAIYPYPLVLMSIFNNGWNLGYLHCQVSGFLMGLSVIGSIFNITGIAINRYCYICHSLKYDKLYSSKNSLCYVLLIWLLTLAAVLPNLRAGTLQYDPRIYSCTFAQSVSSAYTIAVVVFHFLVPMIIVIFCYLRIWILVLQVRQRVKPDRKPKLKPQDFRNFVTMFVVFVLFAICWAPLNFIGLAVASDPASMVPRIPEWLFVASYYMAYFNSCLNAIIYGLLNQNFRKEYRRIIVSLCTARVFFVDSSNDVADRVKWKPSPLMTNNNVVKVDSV
Description: as §1, §2, §3, §4, §5
2. Membrane Homogenates: The melatonin ML1α receptor cDNA was subcloned into pcDNA3 and introduced into NIH-3T3 cells using Lipofectamine. Transformed NIH-3T3 cells resistant to geneticin (G-418) were isolated, and single colonies expressing high levels of 2-[^125I]-iodomelatonin binding were isolated. Cells are maintained in DMEM supplemented with 10% calf serum and G-418 (0.5 g/liter). Cells are grown to confluency in T-175 flasks, scraped using Hank's balanced salt solution, and frozen at −80° C. For preparing membrane homogenates, pellets are thawed on ice, and re-suspended in TME buffer in the presence of 10 μg/ml aprotinin and leupeptin, and 100 μM phenylmethylsulfonylfluoride. The cells were then homogenized using a dounce homogenizer, and centrifuged. The resulting pellet was re-suspended with dounce homogenizer in TME (supplemented with the above protease inhibitors) and frozen. On the day of assay, a small aliquot was thawed on ice and re-suspended in the ice cold TME (1:50-1:100 v/v) and held on ice until assayed.
as §6, §7

Compound | IC50 ([1]; Table IV) | IC50 ([2]; Table IV) | also measured
CC(=O)NC[C@H]1C[C@@H]1c1cccc2oc(CCCCc3ccccc3)cc12 (racemic) [Example 28, N-({(1R,2R)-2-[2-(4-Phenylbutyl)benzo[b]furan-4-yl]-cyclopropyl}methyl)acetamide] | 0.01 to 0.25 µM | < 0.01 µM | 
CCC(=O)NC[C@H]1C[C@@H]1c1cccc2oc(CCCCc3ccccc3)cc12 (racemic) [Example 31, N-({(1R,2R)-2-[2-(4-Phenylbutyl)benzo[b]furan-4-yl]-cyclopropyl}methyl)propanamide] | < 0.01 µM | < 0.01 µM | 
CCCC(=O)NC[C@H]1C[C@@H]1c1cccc2oc(CCCCc3ccccc3)cc12 (racemic) [Example 32, N-({(1R,2R)-2-[2-(4-Phenylbutyl)benzo[b]furan-4-yl]-cyclopropyl}methyl)butanamide] | 0.01 to 0.25 µM | 0.01 to 0.25 µM | 
CC(C)C(=O)NC[C@H]1C[C@@H]1c1cccc2oc(CCCCc3ccccc3)cc12 (racemic) [Example 33, N-({(1R,2R)-2-[2-(4-Phenylbutyl)benzo[b]furan-4-yl]-cyclopropyl}methyl)-2-methylpropanamide] | 0.01 to 0.25 µM | 0.01 to 0.25 µM | 
O=C(NC[C@H]1C[C@@H]1c1cccc2oc(CCCCc3ccccc3)cc12)C1CC1 (racemic) [Example 34, N-({(1R,2R)-2-[2-(4-Phenylbutyl)benzo[b]furan-4-yl]-cyclopropyl}methyl)cyclopropylcarboxamide] | 0.01 to 0.25 µM | 0.01 to 0.25 µM | 
CC(=O)NC[C@H]1C[C@@H]1c1cccc2oc(CCCCc3ccccc3)cc12 (single isomer, unassigned) [Example 29] | 0.01 to 0.25 µM | < 0.01 µM | 
CC(=O)NC[C@H]1C[C@@H]1c1cccc2oc(CCCCc3ccccc3)cc12 (single isomer, unassigned) [Example 30] | > 0.25 µM | 0.01 to 0.25 µM | 
CCC(=O)NCCCc1cccc2c1C[C@H](CCCCc1ccccc1)O2 (stereo in doubt) [Example 2, N-[3-[2-(4-Phenylbutyl)-2,3-dihydrobenzofuran-4-yl]propyl]propionamide] |  |  | IC50 ([1]; Table I): 0.01 to 0.25 µM; IC50 ([2]; Table I): < 0.01 µM
CC(C)C(=O)NCCCc1cccc2c1C[C@H](CCCCc1ccccc1)O2 (stereo in doubt) [Example 4, N-[3-[2-(4-Phenylbutyl)-2,3-dihydrobenzofuran-4-yl]propyl]-2-methylpropionamide] |  |  | IC50 ([1]; Table I): 0.01 to 0.25 µM; IC50 ([2]; Table I): < 0.01 µM
CCNC(=O)NC[C@@H]1C[C@H]1c1cccc2oc(CCCCc3ccccc3)cc12 (stereo in doubt) [Example 35, N-({(1R,2R)-2-[2-(4-Phenylbutyl)benzo[b]furan-4-yl]-cyclopropyl}methyl)(ethylamino)carboxamide] | 0.01 to 0.25 µM | 0.01 to 0.25 µM | 
CC(=O)NC[C@@H]1C[C@H]1c1cccc2oc(CCCCc3ccc(F)cc3)cc12 (stereo in doubt) [Example 36, N-[((1R,2R)-2-{2-[4-(4-Fluorophenyl)butyl]benzo[b]furan-4-yl}-cyclopropyl)methyl]acetamide] | 0.01 to 0.25 µM | < 0.01 µM | 
CCC(=O)NC[C@@H]1C[C@H]1c1cccc2oc(CCCCc3ccc(F)cc3)cc12 (stereo in doubt) [Example 37, N-[((1R,2R)-2-{2-[4-(4-Fluorophenyl)butyl]benzo[b]furan-4-yl}-cyclopropyl)methyl]propanamide] | 0.01 to 0.25 µM | < 0.01 µM | 
CCCC(=O)NC[C@@H]1C[C@H]1c1cccc2oc(CCCCc3ccc(F)cc3)cc12 (stereo in doubt) [Example 38, N-[((1R,2R)-2-{2-[4-(4-Fluorophenyl)butyl]benzo[b]furan-4-yl}-cyclopropyl)methyl]butanamide] | 0.01 to 0.25 µM | 0.01 to 0.25 µM | 
CC(C)C(=O)NC[C@@H]1C[C@H]1c1cccc2oc(CCCCc3ccc(F)cc3)cc12 (stereo in doubt) [Example 39, N-[((1R,2R)-2-{2-[4-(4-Fluorophenyl)butyl]benzo[b]furan-4-yl}-cyclopropyl)methyl]-2-methylpropanamide] | 0.01 to 0.25 µM | 0.01 to 0.25 µM | 
O=C(NC[C@@H]1C[C@H]1c1cccc2oc(CCCCc3ccc(F)cc3)cc12)C1CC1 (stereo in doubt) [Example 40, N-[((1R,2R)-2-{2-[4-(4-Fluorophenyl)butyl]benzo[b]furan-4-yl}-cyclopropyl)methyl]cyclopropylcarboxamide] | 0.01 to 0.25 µM | 0.01 to 0.25 µM | 
CCCC(=O)NCCCc1cccc2c1C[C@H](CCCCc1ccccc1)O2 [Example 3, N-[3-[2-(4-Phenylbutyl)-2,3-dihydrobenzofuran-4-yl]propyl]butyramide] |  |  | IC50 ([1]; Table I): 0.01 to 0.25 µM; IC50 ([2]; Table I): < 0.01 µM
CC(=O)NCCCc1cccc2oc(CCCCc3ccccc3)cc12 [Example 9, N-[3-[2-(4-Phenylbutyl)benzofuran-4-yl]propyl]acetamide] |  |  | IC50 ([1]; Table II): 0.01 to 0.25 µM; IC50 ([2]; Table II): 0.01 to 0.25 µM
CCC(=O)NCCCc1cccc2oc(CCCCc3ccccc3)cc12 [Example 10, N-[3-[2-(4-Phenylbutyl)benzofuran-4-yl]propyl]propionamide] |  |  | IC50 ([1]; Table II): 0.01 to 0.25 µM; IC50 ([2]; Table II): < 0.01 µM
CCCC(=O)NCCCc1cccc2oc(CCCCc3ccccc3)cc12 [Example 11, N-[3-[2-(4-Phenylbutyl)benzofuran-4-yl]propyl]butyramide] |  |  | IC50 ([1]; Table II): 0.01 to 0.25 µM; IC50 ([2]; Table II): 0.01 to 0.25 µM
CC(C)C(=O)NCCCc1cccc2oc(CCCCc3ccccc3)cc12 [Example 12, N-[3-[2-(4-Phenylbutyl)benzofuran-4-yl]propyl]-2-methyl Propionamide] |  |  | IC50 ([1]; Table II): 0.01 to 0.25 µM; IC50 ([2]; Table II): < 0.01 µM
O=C(NCCCc1cccc2oc(CCCCc3ccc(C(F)(F)F)cc3)cc12)C1CC1 [Example 13, N-[3-[2-[4-(4-Trifluoromethylphenyl)butyl]benzofuran-4-yl]propyl]-cyclopropane Carboxamide] |  |  | IC50 ([1]; Table III): > 0.25 µM; IC50 ([2]; Table III): > 0.25 µM
CCNC(=O)NCCCc1cccc2oc(CCCCc3ccc(C(F)(F)F)cc3)cc12 [Example 14, N-[3-[2-[4-(4-Trifluoromethylphenyl)butyl]benzofuran-4-yl]propyl]-N′-ethyl Urea] |  |  | IC50 ([1]; Table III): > 0.25 µM; IC50 ([2]; Table III): 0.01 to 0.25 µM
CC(=O)NCCCc1cccc2oc(CCCCc3ccc(C(F)(F)F)cc3)cc12 [Example 15, N-[3-[2-[4-(4-Trifluoromethylphenyl)butyl]benzofuran-4-yl]propyl]-acetamide] |  |  | IC50 ([1]; Table III): > 0.25 µM; IC50 ([2]; Table III): 0.01 to 0.25 µM
CCC(=O)NCCCc1cccc2oc(CCCCc3ccc(C(F)(F)F)cc3)cc12 [Example 16, N-[3-[2-[4-(4-Trifluoromethylphenyl)butyl]benzofuran-4-yl]propyl]-propionamide] |  |  | IC50 ([1]; Table III): 0.01 to 0.25 µM; IC50 ([2]; Table III): 0.01 to 0.25 µM
CCCC(=O)NCCCc1cccc2oc(CCCCc3ccc(C(F)(F)F)cc3)cc12 [Example 17, N-[3-[2-[4-(4-Trifluoromethylphenyl)butyl]benzofuran-4-yl]propyl]-butyramide] |  |  | IC50 ([1]; Table III): 0.01 to 0.25 µM; IC50 ([2]; Table III): 0.01 to 0.25 µM
CC(C)C(=O)NCCCc1cccc2oc(CCCCc3ccc(C(F)(F)F)cc3)cc12 [Example 18, N-[3-[2-[4-(4-Trifluoromethylphenyl)butyl]benzofuran-4-yl]propyl]-isobutyramide] |  |  | IC50 ([1]; Table III): > 0.25 µM; IC50 ([2]; Table III): 0.01 to 0.25 µM
CCNC(=O)NC[C@H]1C[C@@H]1c1cccc2oc(CCCCc3ccc(F)cc3)cc12 [Example 41, N-[((1R,2R)-2-{2-[4-(4-Fluorophenyl)butyl]benzo[b]furan-4-yl-}-cyclopropyl)methyl](ethylamino)carboxamide] | > 0.25 µM | 0.01 to 0.25 µM | 
CCC(=O)NC[C@@H]1C[C@H]1c1cccc2c1C[C@@H](CCCCc1ccccc1)O2 [Example 43, N-({2-[(2R)-2-(4-Phenylbutyl)(2,3-dihydrobenzo[b]furan-4-yl)]-(1R,2R)cyclopropyl}methyl)propanamide] |  |  | IC50 ([1]; Table V): < 0.01 µM; IC50 ([2]; Table V): < 0.01 µM
